Data from ChEMBL document CHEMBL5465560, “Selectivity Literature for EUbOPEN Chemogenomic Library” (2024).
One block for each compound: values may come before it.

How the values were obtained:
[1] = molecular target: T1, Receptor-type tyrosine-protein kinase FLT3 (Homo sapiens, UniProt P36888); assay: Selectivity interaction (Kinase panel (Eurofins, enzymatic assay)) EUB0000311b FLT3
T1 sequence (P36888 whole entry): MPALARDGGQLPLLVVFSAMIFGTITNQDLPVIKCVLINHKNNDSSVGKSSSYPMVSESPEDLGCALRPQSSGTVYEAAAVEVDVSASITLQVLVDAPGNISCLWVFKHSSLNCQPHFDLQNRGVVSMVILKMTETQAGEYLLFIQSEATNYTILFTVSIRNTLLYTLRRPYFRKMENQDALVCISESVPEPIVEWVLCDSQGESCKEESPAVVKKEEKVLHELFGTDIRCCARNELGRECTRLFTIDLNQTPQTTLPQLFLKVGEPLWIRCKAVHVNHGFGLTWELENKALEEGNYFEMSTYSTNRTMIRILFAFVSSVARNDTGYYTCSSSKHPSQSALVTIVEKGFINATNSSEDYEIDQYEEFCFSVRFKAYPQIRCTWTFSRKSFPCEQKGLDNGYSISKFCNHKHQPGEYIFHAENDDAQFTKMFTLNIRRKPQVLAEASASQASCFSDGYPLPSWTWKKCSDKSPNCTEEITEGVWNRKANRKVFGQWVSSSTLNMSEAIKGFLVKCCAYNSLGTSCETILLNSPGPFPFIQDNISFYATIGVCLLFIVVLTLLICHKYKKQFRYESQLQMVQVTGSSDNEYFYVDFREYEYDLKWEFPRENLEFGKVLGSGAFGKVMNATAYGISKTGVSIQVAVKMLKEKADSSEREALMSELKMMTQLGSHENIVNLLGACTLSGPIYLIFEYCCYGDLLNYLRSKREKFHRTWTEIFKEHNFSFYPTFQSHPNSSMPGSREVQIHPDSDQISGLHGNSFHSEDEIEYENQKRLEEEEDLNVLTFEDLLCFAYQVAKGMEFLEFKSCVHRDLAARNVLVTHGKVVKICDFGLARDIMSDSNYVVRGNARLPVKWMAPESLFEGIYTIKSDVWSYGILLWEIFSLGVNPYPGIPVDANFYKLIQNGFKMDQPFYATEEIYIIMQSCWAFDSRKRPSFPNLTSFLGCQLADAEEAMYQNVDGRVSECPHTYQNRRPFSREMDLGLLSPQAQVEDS

[2] = molecular target: T2, RAC-alpha serine/threonine-protein kinase (Homo sapiens, UniProt P31749); assay: Selectivity interaction (KinomeScan (DiscoverX)) EUB0000607a AKT1; details: at 10 µM
[3] = molecular target: T3, Phosphatidylinositol 4,5-bisphosphate 3-kinase catalytic subunit delta isoform (Homo sapiens) (UniProt O00329); assay: Selectivity interaction (KinomeScan (DiscoverX)) EUB0000607a PIK3CD; details: at 10 µM
T3 sequence (whole entry): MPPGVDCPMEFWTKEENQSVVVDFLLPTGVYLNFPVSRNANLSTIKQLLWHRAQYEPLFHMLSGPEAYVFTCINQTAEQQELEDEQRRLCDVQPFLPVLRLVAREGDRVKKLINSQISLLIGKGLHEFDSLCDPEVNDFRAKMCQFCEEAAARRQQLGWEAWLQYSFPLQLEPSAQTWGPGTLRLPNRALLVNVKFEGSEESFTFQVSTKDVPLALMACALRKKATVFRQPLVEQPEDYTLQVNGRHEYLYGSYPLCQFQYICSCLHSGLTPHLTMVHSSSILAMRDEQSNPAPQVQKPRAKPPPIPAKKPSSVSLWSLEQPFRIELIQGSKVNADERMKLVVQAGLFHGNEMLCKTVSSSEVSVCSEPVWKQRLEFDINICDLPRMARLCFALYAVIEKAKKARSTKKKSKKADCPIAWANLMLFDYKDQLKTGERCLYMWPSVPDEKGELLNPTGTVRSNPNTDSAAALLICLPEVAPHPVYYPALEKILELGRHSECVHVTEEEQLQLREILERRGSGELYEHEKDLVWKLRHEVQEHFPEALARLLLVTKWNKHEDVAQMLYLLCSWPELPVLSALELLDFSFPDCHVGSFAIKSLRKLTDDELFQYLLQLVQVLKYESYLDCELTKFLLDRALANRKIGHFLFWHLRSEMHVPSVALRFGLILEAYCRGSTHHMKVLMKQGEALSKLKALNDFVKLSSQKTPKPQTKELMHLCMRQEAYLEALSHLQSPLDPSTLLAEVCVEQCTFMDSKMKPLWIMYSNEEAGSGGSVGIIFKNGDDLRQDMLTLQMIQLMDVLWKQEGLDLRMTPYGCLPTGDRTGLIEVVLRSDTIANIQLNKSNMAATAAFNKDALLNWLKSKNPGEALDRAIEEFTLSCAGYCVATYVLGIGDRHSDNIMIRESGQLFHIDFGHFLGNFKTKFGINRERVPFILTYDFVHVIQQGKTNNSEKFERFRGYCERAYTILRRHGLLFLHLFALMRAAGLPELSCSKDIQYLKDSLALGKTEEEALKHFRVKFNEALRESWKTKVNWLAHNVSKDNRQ

[4] = molecular target: Histone-lysine N-methyltransferase, H3 lysine-79 specific (Homo sapiens, UniProt Q8TEK3); assay: Selectivity interaction (Methyltransferase screen (radiometric assays, panel of 8 PRMTs, 21 protein lysine methyltransferases, 3 DNA methyltransferases, and one RNA methyltransferase)) EUB0000271b DOT1L
[5] = molecular target: Ribosomal protein S6 kinase alpha-2 (Homo sapiens) (UniProt Q15349); assay: Selectivity interaction (Ambit KINOMEscan and KiNATiv profiling in Jurkat cells) EUB0000090b RPS6KA2; assay type: cell-based; details: at 1 µM
[6] = molecular target: Histone-lysine N-methyltransferase KMT5C (Homo sapiens) (UniProt Q86Y97); details: at 1 µM
[7] = molecular target: T2, RAC-alpha serine/threonine-protein kinase; assay: Selectivity interaction (Kinase panel (KiNativ target engagement assay in Jurkat cells)) EUB0001635a AKT1; assay type: cell-based; details: at 1 µM
[8] = molecular target: Ribosomal protein S6 kinase alpha-5 (Homo sapiens) (UniProt O75582); details: at 10 µM
[9] = molecular target: TRAF2 and NCK-interacting protein kinase (Homo sapiens) (UniProt Q9UKE5); assay: Selectivity interaction (KinomeScan (DiscoverX)) EUB0001619a TNIK; details: at 1 µM

Histone-lysine N-methyltransferase, H3 lysine-79 specific, sequence (Q8TEK3 whole entry, looked up): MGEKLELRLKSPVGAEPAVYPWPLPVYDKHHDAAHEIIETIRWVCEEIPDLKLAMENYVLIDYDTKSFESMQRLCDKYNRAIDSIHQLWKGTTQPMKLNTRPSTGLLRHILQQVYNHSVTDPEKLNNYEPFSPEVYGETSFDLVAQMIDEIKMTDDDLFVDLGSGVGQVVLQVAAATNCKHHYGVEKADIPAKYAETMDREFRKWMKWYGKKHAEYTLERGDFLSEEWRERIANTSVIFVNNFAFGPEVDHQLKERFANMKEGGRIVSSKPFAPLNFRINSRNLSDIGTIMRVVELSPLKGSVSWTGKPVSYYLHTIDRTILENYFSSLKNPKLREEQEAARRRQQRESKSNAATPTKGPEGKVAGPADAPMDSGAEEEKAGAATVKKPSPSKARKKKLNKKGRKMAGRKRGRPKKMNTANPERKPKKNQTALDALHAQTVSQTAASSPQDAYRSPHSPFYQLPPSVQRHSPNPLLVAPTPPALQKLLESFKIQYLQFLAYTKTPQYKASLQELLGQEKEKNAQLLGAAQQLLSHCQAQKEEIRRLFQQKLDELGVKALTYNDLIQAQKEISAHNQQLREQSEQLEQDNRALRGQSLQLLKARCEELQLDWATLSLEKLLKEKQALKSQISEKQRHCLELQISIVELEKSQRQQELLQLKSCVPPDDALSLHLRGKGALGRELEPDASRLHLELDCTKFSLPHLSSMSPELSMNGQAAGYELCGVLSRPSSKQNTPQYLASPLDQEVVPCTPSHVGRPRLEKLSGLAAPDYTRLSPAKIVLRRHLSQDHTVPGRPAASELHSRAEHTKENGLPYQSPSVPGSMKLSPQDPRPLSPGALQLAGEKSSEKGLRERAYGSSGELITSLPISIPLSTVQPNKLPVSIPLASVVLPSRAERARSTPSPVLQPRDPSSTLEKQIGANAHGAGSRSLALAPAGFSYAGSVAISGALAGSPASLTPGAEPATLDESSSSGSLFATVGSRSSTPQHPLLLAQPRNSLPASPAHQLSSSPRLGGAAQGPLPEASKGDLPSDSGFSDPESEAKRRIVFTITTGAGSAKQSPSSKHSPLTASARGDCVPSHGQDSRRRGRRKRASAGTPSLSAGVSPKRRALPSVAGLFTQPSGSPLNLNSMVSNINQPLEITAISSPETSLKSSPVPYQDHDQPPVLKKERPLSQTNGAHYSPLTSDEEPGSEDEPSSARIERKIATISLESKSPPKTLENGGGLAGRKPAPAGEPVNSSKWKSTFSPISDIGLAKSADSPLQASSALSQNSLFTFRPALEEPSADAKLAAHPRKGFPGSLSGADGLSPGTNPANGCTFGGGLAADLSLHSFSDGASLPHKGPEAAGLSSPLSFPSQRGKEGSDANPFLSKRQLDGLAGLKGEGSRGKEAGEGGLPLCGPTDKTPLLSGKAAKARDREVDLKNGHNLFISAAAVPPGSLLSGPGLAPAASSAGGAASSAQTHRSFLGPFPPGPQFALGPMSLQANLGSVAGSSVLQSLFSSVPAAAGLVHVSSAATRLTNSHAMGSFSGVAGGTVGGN
T2 sequence (P31749 whole entry, canonical isoform): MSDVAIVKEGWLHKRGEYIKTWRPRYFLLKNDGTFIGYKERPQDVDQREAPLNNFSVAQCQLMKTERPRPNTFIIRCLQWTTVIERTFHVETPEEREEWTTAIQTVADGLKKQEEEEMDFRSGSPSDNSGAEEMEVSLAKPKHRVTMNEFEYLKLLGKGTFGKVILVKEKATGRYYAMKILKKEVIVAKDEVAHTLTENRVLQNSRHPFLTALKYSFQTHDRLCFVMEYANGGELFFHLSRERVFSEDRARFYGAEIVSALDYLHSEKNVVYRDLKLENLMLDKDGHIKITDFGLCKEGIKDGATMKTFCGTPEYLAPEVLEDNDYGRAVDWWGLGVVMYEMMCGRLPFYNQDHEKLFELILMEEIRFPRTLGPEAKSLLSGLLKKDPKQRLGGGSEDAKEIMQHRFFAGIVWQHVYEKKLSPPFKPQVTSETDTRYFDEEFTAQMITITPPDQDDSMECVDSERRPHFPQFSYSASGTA
Ribosomal protein S6 kinase alpha-2 (Homo sapiens), sequence (Q15349 whole entry): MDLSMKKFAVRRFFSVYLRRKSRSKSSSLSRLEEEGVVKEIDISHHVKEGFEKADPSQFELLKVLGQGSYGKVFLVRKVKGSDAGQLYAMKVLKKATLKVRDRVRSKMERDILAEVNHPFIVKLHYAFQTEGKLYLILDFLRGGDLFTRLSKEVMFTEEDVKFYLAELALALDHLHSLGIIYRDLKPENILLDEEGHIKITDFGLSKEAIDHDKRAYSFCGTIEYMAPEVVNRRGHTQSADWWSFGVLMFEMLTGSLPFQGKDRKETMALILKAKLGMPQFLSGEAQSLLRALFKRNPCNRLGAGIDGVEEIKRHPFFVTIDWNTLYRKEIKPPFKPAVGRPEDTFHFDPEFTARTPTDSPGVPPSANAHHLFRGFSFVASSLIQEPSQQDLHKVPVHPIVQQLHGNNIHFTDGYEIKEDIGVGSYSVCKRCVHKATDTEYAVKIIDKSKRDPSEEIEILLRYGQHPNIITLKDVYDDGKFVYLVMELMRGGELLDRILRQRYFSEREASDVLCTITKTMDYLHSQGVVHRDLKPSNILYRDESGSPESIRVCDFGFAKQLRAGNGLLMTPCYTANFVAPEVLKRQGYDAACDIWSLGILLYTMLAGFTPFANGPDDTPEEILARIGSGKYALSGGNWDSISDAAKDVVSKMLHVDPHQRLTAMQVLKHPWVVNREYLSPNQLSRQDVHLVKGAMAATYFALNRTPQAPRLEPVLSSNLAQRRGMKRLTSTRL
Ribosomal protein S6 kinase alpha-5 (Homo sapiens), sequence (O75582 whole entry, looked up): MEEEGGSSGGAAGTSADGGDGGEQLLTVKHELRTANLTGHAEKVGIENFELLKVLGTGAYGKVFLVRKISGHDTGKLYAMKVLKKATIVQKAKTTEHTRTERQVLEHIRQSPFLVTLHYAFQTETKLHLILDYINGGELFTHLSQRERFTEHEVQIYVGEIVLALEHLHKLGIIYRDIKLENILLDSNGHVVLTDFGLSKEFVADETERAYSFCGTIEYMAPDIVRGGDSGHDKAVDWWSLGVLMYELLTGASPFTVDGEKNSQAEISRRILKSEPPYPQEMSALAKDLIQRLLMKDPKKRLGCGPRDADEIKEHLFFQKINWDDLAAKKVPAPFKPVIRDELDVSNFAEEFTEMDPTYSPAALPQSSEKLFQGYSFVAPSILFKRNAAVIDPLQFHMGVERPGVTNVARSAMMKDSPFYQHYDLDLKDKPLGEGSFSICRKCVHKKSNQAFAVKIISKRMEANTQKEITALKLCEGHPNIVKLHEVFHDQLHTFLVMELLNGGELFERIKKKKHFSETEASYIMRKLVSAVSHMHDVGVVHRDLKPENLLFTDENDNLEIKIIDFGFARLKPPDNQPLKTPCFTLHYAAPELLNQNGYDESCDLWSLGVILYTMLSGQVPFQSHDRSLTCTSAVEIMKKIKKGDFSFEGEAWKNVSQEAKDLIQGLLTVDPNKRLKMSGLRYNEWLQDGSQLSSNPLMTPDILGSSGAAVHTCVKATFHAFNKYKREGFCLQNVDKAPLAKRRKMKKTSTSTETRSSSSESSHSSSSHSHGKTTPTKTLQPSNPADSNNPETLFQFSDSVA
Histone-lysine N-methyltransferase KMT5C (Homo sapiens), sequence (Q86Y97 whole entry, looked up): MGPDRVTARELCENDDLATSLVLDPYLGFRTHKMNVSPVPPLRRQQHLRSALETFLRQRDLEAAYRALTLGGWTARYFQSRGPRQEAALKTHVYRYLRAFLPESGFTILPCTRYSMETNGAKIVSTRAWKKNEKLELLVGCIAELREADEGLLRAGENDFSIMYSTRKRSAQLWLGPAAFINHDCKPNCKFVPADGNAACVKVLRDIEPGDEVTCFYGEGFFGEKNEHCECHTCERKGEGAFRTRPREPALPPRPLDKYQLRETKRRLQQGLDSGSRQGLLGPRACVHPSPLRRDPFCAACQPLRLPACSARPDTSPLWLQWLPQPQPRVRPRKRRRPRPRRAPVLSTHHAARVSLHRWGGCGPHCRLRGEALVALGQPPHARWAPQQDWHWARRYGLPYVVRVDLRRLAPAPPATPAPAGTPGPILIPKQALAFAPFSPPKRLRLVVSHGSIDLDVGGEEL

IC50 [1]: 124 nM
SMILES: CCc1ccccc1C(=O)Nc1n[nH]c2c(C)c(F)c(C3C(C#N)=C(C)N(C)C(C)=C3C#N)cc12 [BAY-3827]

SMILES: CNC(=O)Nc1ccc(-c2nc(N3CC4CCC(C3)O4)c3cnn(C4CCC5(CC4)OCCO5)c3n2)cc1
% of control [2]: 81%
% of control [3]: 5.7%

SMILES: Cc1cc(C)cc([C@@H]2c3cc(C)ccc3NC(=O)CN2C(=O)c2ccc(Br)s2)c1
% of activity ([4]; at 1 µM): 102%
% of activity ([4]; at 10 µM): 92.7%

SMILES: CN(C)C/C=C/C(=O)Nc1ccc(C(=O)N2CCCC(Nc3ncc(Cl)c(-c4c[nH]c5ccccc45)n3)C2)cc1 (stereo not given)
% of control [5]: 55%

% activity [6]: > 90%
SMILES: CNCCN1CCC(c2cc(CN(C)C(=O)c3cccc(Oc4ccccc4)c3)ccn2)CC1

SMILES: C=CC(=O)Nc1ccc(C(=O)Nc2[nH]nc3c2CN(C(=O)N[C@H](CN(C)C)c2ccccc2)C3(C)C)cc1
% of engagement [7]: -9.9%

SMILES: Cc1cc([C@@H](C)Nc2ccccc2C(=O)O)c2nc(N3CCOCC3)cc(=O)n2c1 [AZD-6482]
% of control [8]: 91%

SMILES: N#Cc1cccc(-c2c[nH]c3ncnc(N4CCOCC4)c23)c1
% of control [9]: 45%
